Laboratory results from PubChem BioAssay (NCI).
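48-hour exposure; five concentrations; linearly interpolated endpoints. TGI: concentration producing complete growth inhibition.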

Experiments:
Experiment in all cases: inhibition of tumour cell growth, NCI panel, 48 h
BT-549 breast = tested on: BT-549 breast
IGROV1 ovarian = tested on: IGROV1 ovarian
MOLT-4 leukemia = tested on: MOLT-4 leukemia
U251 CNS = tested on: U251 CNS
NCI/ADR-RES ovarian = tested on: NCI/ADR-RES ovarian
RXF 393 renal = tested on: RXF 393 renal
CCRF-CEM leukemia = tested on: CCRF-CEM leukemia
CAKI-1 renal = tested on: CAKI-1 renal
SF-295 CNS = tested on: SF-295 CNS
HCT-15 colon = tested on: HCT-15 colon

SMILES	TGI (BT-549 breast)	TGI (IGROV1 ovarian)	TGI (MOLT-4 leukemia)	TGI (U251 CNS)	TGI (NCI/ADR-RES ovarian)	TGI (RXF 393 renal)	TGI (CCRF-CEM leukemia)	TGI (CAKI-1 renal)	TGI (SF-295 CNS)	TGI (HCT-15 colon)
Nc1ccc(-c2nc3ccccc3s2)cc1Cl	> 100 µM	> 100 µM	> 100 µM	> 100 µM	> 100 µM	> 94.2 µM	98.3 µM	> 100 µM	> 100 µM	> 100 µM
Cc1ccc(S(=O)(=O)NC(CCC(=O)NNc2ccccc2)C(=O)NNc2ccccc2)cc1 (stereo unspecified)	> 100 µM	> 100 µM	> 100 µM	> 100 µM	> 100 µM	> 100 µM	> 100 µM	> 100 µM	> 100 µM	> 100 µM
Cc1cc(-n2nnc(C(=O)O)c2-c2ccccc2)c2ccc(Cl)cc2n1	> 100 µM	> 100 µM	> 100 µM	> 100 µM	> 100 µM	> 100 µM	> 100 µM	> 100 µM	> 100 µM	> 100 µM
NCCCN(CCCCN(CCCN)C(=O)OCc1ccccc1)C(=O)OCc1ccccc1	> 100 µM	> 100 µM	> 100 µM	> 100 µM	> 100 µM	> 100 µM	> 100 µM	> 100 µM	> 100 µM	> 100 µM
O=C(c1ccccc1)c1ccc2nc(-c3c(Cl)c(Cl)c(Cl)c(Cl)c3-c3nnc(-c4ccccc4)o3)[nH]c2c1	> 100 µM	> 100 µM	> 100 µM	> 100 µM	> 100 µM	47.1 µM	> 100 µM	> 100 µM	73.9 µM	> 100 µM
COC(=O)[C@H](Cc1c[nH]c2ccccc12)NP(=O)(OCCC#N)OCC1OC(n2cc(C)c(=O)[nH]c2=O)CC1N=[N+]=[N-] (stereo partly specified)	> 100 µM	> 100 µM	> 100 µM	> 100 µM	> 100 µM	> 100 µM	> 100 µM	> 100 µM	> 100 µM	> 100 µM
CC1CC/C(=C\c2ccc(F)cc2)C2=C1C(c1ccc(F)cc1)N1C(=O)CSC1=N2 (stereo unspecified)	> 100 µM	> 100 µM	60.6 µM	> 100 µM	> 100 µM	> 100 µM	> 100 µM	> 100 µM	> 100 µM	> 100 µM
O=C(CCN1CCOCC1)/C(=C/c1ccccc1)c1ccccc1	–	22.8 µM	5.81 µM	12.9 µM	17.5 µM	3.4 µM	–	16.9 µM	25.7 µM	5.98 µM
Cc1ccc(S(=O)(=O)NC(=O)NC(Cc2ccc(O)cc2)C(=O)O)cc1 (stereo unspecified)	> 100 µM	> 100 µM	> 100 µM	> 100 µM	> 100 µM	> 100 µM	> 100 µM	–	> 100 µM	> 100 µM
Cc1nc2cc(F)c(F)cc2[nH]c1=O	> 100 µM	–	> 100 µM	> 100 µM	> 100 µM	> 100 µM	> 100 µM	> 100 µM	> 100 µM	> 100 µM
COC(C/C(=C/CO[Si](C(C)C)(C(C)C)C(C)C)C(=O)N(COCC[Si](C)(C)C)c1ccccc1I)OC	–	27.4 µM	> 100 µM	94.8 µM	> 100 µM	–	> 100 µM	> 100 µM	17.4 µM	> 100 µM
O=C(O)CCC(=O)OCN1C(=O)C2C3C=CC(C2C1=O)C1C2C(=O)N(COC(=O)CCC(=O)O)C(=O)C2C31 (stereo unspecified)	–	> 100 µM	> 100 µM	> 100 µM	–	> 100 µM	> 81.1 µM	> 100 µM	> 100 µM	> 57 µM
O=P1(N2CCOCC2)OCCO1	–	> 100 µM	> 100 µM	> 100 µM	> 100 µM	> 100 µM	> 100 µM	> 100 µM	> 100 µM	> 100 µM
CC(C)(C)C1CCC2c3c([nH]c4ccccc34)C3C(=O)N(c4ccc(C#N)cc4)C(=O)C3C2C1 (stereo unspecified)	65.5 µM	> 100 µM	> 100 µM	37.1 µM	53.5 µM	15.4 µM	–	61 µM	> 100 µM	26.2 µM
N#CC(CCN1CCC(Nc2ccccc2)(c2nnnn2C2CCCCC2)CC1)(c1ccccc1)c1ccccc1	> 100 µM	> 100 µM	> 100 µM	> 100 µM	> 100 µM	> 100 µM	> 100 µM	–	> 100 µM	> 100 µM
O=c1[nH]nc(-c2ccccc2)n1/N=C/c1ccc([N+](=O)[O-])o1	–	16.9 µM	> 47.1 µM	18.3 µM	> 26 µM	2.63 µM	19.6 µM	28.2 µM	> 55.1 µM	17.3 µM
Nc1cc2c(c3ccccc13)C(CCl)CN2C(=O)c1cc2cc(NC(=O)Nc3ccc4[nH]c(C(=O)N5CC(CCl)c6c5cc(N)c5ccccc65)cc4c3)ccc2[nH]1 (stereo unspecified)	4.53 µM	1.4 µM	–	–	39.4 µM	0.248 µM	2.98 µM	0.444 µM	2.99 µM	> 32.3 µM
ClC(Cl)(Cl)C1CCOC1n1nnc2ccccc21 (stereo unspecified)	86 µM	> 100 µM	73.8 µM	> 100 µM	> 100 µM	> 100 µM	> 100 µM	> 100 µM	> 100 µM	–
COc1ccccc1-n1c(=O)n(C)c(=O)n1C(C)(C)C	> 100 µM	–	> 100 µM	> 100 µM	> 100 µM	> 100 µM	> 100 µM	> 100 µM	–	> 100 µM
CC1CC[C@@]2(OC1)O[C@H]1[C@H](O)[C@H]3[C@@H]4CC[C@H]5C[C@@H](OC6OC(CO)C(OC7OC(CO)C(O)C(OC8OCC(O)C(O)C8O)C7OC7OC(CO)C(O)C(O)C7OC7OC(CO)C(O)C(O)C7O)C(O)C6O)[C@H](O)C[C@]5(C)[C@H]4CC[C@]3(C)[C@H]1[C@@H]2C (stereo partly specified)	> 10 µM	> 10 µM	1.19 µM	> 10 µM	> 10 µM	> 10 µM	2.51 µM	> 10 µM	–	> 10 µM
COc1ccc(C#Cn2nnc3ccccc32)cc1	> 100 µM	> 100 µM	> 100 µM	> 100 µM	> 100 µM	> 100 µM	–	> 100 µM	> 100 µM	> 100 µM
